# “Also recorded” adds a separate entry of the source. Structures can show the parent of a compound that is named as a salt.
# Key:
# [1] = system: Rhesus CMV (RhCMV); assay: Rhesus CMV viral replication kinetics on rhesus fibroblast cells; format: cell-based, rhesus monkey
# Procedure: (§1) Murine CMV (MCMV) replication kinetics were performed in BALB/c mice using the Smith strain of MCMV as previously described (Orr et al., 2010) and on NIH 3T3 cells using same methods as for HCMV. Rhesus CMV (RhCMV) viral replication kinetics were performed on rhesus fibroblast cells as described in (Lilja et al., 2008).
# [2] = system: IE2 circuit in clinically derived CMV isolate TB40E; assay: Flow cytometry of TB40E infected ARPE cells; format: cell-based, human CMV (hCMV); conditions: 17 h and 20 h post infection, FIG. 21
# Procedure: Flow cytometry was performed on TB40E infected ARPE cells at 17 h and 20 h post infection. The data was analyzed as described in Teng et al. Cell 2012, cited herein.
# [3] = system: ARPE-19 cells stably transduced with LM2ig; assay: Viability of ARPE-19 cells stably transduced with LM2ig; format: cell-based; conditions: FIG. 1, FIG. 2
# Procedure: MRCS fibroblasts and life-extended human foreskin fibroblasts (HFFs) (Bresnahan and Shenk, 2000) were maintained in Dulbecco's Modified Eagle's Medium (DMEM) supplemented with 10% fetal bovine serum (FBS) and 50 U/ml penicillin-streptomycin at 37° C. and 5% CO2 in a humidified incubator. ARPE-19 cells were maintained in a 1:1 mixture of DMEM/F-12 (Mediatech Inc.) with 10% FBS (HyClone) and 50 U/ml Penicillin-Streptomycin (Mediatech Inc.). Cells were treated with a final concentration of 1 mM valproic acid (VPA) (Calbiochem™), resuspended in dimethylsulfoxide, for approximately 24 hours before imaging. Cells were treated with a final concentration of 400 nM TSA (Sigma-Aldrich) resuspended in dimethylsulfoxide, for 20-24 hours, a final concentration of 10 ng/mL TNF-α (Sigma-Aldrich) resuspended in phosphate-buffered saline (PBS), or a final concentration of 1 mM VPA (Calbiochem) for approximately 24 hours before imaging.
# Standard lentiviral cloning was used to create minimal major immediate early (MIE) circuits (Dull et al., 1998). The minimal MIEP-IE2-GFP and MIEP-GFP circuits are driven by a full-length ˜2.5 kb MIE promoter-enhancer (MIEP) that spans the sequence from the MIEP modulator at the 5′ edge to the junction of immediate early (IE) exons 1 and 2. The MIEP was polymerase chain reaction (PCR)-cloned from AD169 into pLEIGW in place of the EF1a promoter. This full-length MIEP drives an IE2-IRES-GFP or mCherry-IRES-GFP cassette. IE2 was cloned from pRSV-IE86 (a gift from Jay Nelson). ARPE-19 cells were infected and fluorescence-activated cell sorter (FACS) sorted for green fluorescent protein (GFP) fluorescence to create stably expressing cell lines. Cells were treated with Trichostatin-A (TSA) for 17 hours, and GFP expression was quantified by flow cytometry. Live cells were gated by forward-versus-side scattering on a FacsCalibur™ cytometer (BD Biosciences) and mean fluorescence intensity recorded. At least 20,000 live cells were recorded for each experiment and data was analyzed in FlowJo™ (Treestar Inc.).
# [4] = system: HCMV; assay: HCMV infection across a range of virus concentrations, 10 days post-infection; format: cell-based, human CMV (hCMV); conditions: wide range of virus concentrations, FIG. 23
# Text: All time points were taken at 10 days post-infection as described in Teng et al. Cell 2012 (cited herein).
# [5] = system: latent CMV in N-Tera2 cells; assay: N-Tera2 latency assay (reactivation of latent CMV); format: cell-based, human CMV (hCMV); conditions: FIG. 4 lower panel, trihydrochloride hydrate
# Procedure: Reactivation of latent CMV in N-Tera2 cells was conducted as previously described in (Meier, 2001).
# [6] = system: clinically derived CMV isolate TB40E; assay: HCMV TB40E virus replication and spread on epithelial cell monolayers; format: cell-based, human CMV (hCMV); conditions: FIG. 22
# Text: (Cells show more CPE with drug treatment and appear more distorted and larger.) Infection at MOI of 1 on confluent epithelial cell monolayers. Images on day 5, post infection.
# [7] = system: IE2 negative feedback (LM2ig "low" cells); assay: LM2ig "low" drug screen (4 day induction, high throughput flow cytometry); format: cell-based, human CMV (hCMV); conditions: induction period of 4 days, FIG. 9
# Procedure: LM2ig “low” cells (˜0% GFP positive before induction) were treated with agents in duplicate for an induction period of 4 days. During this induction period, the cell culture medium was not changed; images were taken every day for 4 days. On the final day, high throughput flow cytometry was carried out on FACS IntelliCyt. Agents tested were: Hoechst 33258, Hoechst 33342, VPA, TSA, TNF-α, hexamethylene bisacetamide (HMBA), phorbol myristate acetate (PMA), neotroposin, distamycin, DAPI, gemcitabine, prednisolone, suberanilohydroxamic acid (SAHA), (2E)-N-hydroxy-3-[4-({[2-(2-methyl-1H-indol-3-yl)ethyl]amino}methyl)phenyl]acrylamide (panobinostat), thapsigargin, JQ1, prostratin, dimizane acetate, pentamidine, or bendamustine.
# [8] = system: CRS sequences (tetranucleotide motif TTTA); assay: bisBenzimide binding assay (fluorescence) with CRS sequences; parameters: species or system hCMV; conditions: CRS sequence 10 μM, BB33258 10 μM to 1 nM, room temperature, DPBS; FIGS. 15 and 16; trihydrochloride hydrate
# Procedure: (§2) Serial dilutions for each CRS sequence were prepared. Each CRS sequence was held constant at 10 μM while BB33258 was titrated from 10 μM to 1 nM. All assays were performed at room temperature (˜25° C. in DPBS). Serial dilutions were pipetted into 96-well glass bottom plate and allowed to equilibrate for 3 hours at room temperature in the dark. Plates were then assayed for fluorescence intensity using Perkin-Elmer EnSpyre multimode plate reader. Scans from 370 nm to 580 nm for each sequence were obtained. Dilution concentrations and BB33258 combinations that saturated the PMT were excluded.
# [9] = system: mCMV CRS sequence; assay: bisBenzimide binding assay (fluorescence), mCMV CRS saturation curve; conditions: BB33258 titrated from 10 μM to 1 nM; FIG. 18
# Procedure: as §2
# [10] = system: Smith strain of MCMV; assay: Murine CMV replication kinetics in BALB/c mice; format: in vivo
# Procedure: as §1
smiles,measurement,setting,value
"CN1CCN(c2ccc3[nH]c(-c4ccc5[nH]c(-c6ccc(O)cc6)nc5c4)nc3c2)CC1 [Hoechst 33258, 2′-(4-hydroxyphenyl)-5-(4-methyl-1-piperazinyl)-2,5′-bi-1H-benzimidazole trihydrochloride hydrate]",cytopathic effect (CPE) and plaque formation,"[1]; DIC imaging, rhCMV-infected cells",reduced cytopathic effect (CPE) and plaque formation
same,rhCMV replication,[1]; FIG. 11,inhibited rhCMV replication to an extent similar to Hoechst 33258 inhibition of hCMV replication
same,inhibitory effect on rhCMV replication at various MOI and after multiple rounds of replication,[1]; FIG. 12,remains both at high MOI and also after multiple rounds of replication
same,IE2 circuit / IE2 expression levels,[2],breaks the IE2 circuit and amplifies IE2 expression levels
same,cell viability / cytotoxicity,[3],reduced cell viability
same,HCMV infection,[4],inhibits HCMV infection across a wide range of virus concentrations
same,reactivation of latent CMV,[5],reactivated latent CMV; also recorded: reactivation of latent HCMV
same,virus fitness (TB40E replication levels),"[6]; MOI of 1, confluent epithelial cell monolayers",virus fitness loss
same,cell to cell spread (IE2-YFP positive cells),"[6]; MOI of 1, images on day 5 post infection",inhibits cell to cell spread
same,breaking of the IE2 negative feedback (geometric mean of GFP),[7],specifically break the IE2 negative feedback
same,DNA binding specificity (motif),[8],binds primarily to a specific tetranucleotide motif (TTTA)
same,saturation of binding to mCMV CRS,[9],did not saturate within the range of concentrations tested
same,reduction of mCMV replication,[10],~5 fold
